Measurements reported in ChEMBL document CHEMBL1201862, “PubChem BioAssay data set” (2004).
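Interpolation was linear, between the two tested concentrations surrounding the appropriate level; five concentrations were tested over 48 hours in 96-well plates. Abbreviation: GI50, concentration required for 50% inhibition of growth.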 Calls of active or inactive are those of the source. Rule as the data show it: active = GI50 up to about 1.1 µM and inactive = higher.

What was measured:
Experiment in all cases: NCI tumour cell line growth inhibition, 48 h
786-0 = tested on: 786-0
A549 = tested on: A549
COLO 205 = tested on: COLO 205
HL-60 = tested on: HL-60
HOP-92 = tested on: HOP-92
M14 = tested on: M14
MDA-MB-231 = tested on: MDA-MB-231
MDA-MB-435 = tested on: MDA-MB-435
MDA-N = tested on: MDA-N
MOLT-4 = tested on: MOLT-4
Malme-3M = tested on: Malme-3M
NCI-H226 = tested on: NCI-H226
NCI/ADR-RES = tested on: NCI/ADR-RES
OVCAR-4 = tested on: OVCAR-4
PC-3 = tested on: PC-3
RPMI-8226 = tested on: RPMI-8226
SK-OV-3 = tested on: SK-OV-3
UACC-257 = tested on: UACC-257
UO-31 = tested on: UO-31
K562 = tested on: K562

SMILES	GI50 (786-0)	GI50 (A549)	GI50 (COLO 205)	GI50 (HL-60)	GI50 (HOP-92)	GI50 (M14)	GI50 (MDA-MB-231)	GI50 (MDA-MB-435)	GI50 (MDA-N)	GI50 (MOLT-4)	GI50 (Malme-3M)	GI50 (NCI-H226)	GI50 (NCI/ADR-RES)	GI50 (OVCAR-4)	GI50 (PC-3)	GI50 (RPMI-8226)	GI50 (SK-OV-3)	GI50 (UACC-257)	GI50 (UO-31)	GI50 (K562)
COc1ccc2nc3ccc(OC)cc3c([S+]([O-])CCCl)c2c1 (configuration not stated)	1.76 µM (inactive)	20.9 µM (inactive)	1.77 µM (inactive)	2.31 µM (inactive)	2.49 µM (inactive)	3.52 µM (inactive)	5.87 µM (inactive)	3.73 µM (inactive)	2.44 µM (inactive)	2.82 µM (inactive)	1.69 µM (inactive)	16.8 µM (inactive)	15.2 µM (inactive)	5.05 µM (inactive)	11.2 µM (inactive)	2.11 µM (inactive)	20.7 µM (inactive)	2.21 µM (inactive)	2.28 µM (inactive)	–
COc1cc(Oc2nc3c(N)cc(C(F)(F)F)cc3nc2-c2ccccc2)cc(OC)c1OC	3.97 µM (inactive)	5 µM (inactive)	3.62 µM (inactive)	1.16 µM (inactive)	14.7 µM (inactive)	5.81 µM (inactive)	10.2 µM (inactive)	0.445 µM (active)	0.412 µM (active)	3.44 µM (inactive)	0.869 µM (active)	12.8 µM (inactive)	2.09 µM (inactive)	19.2 µM (inactive)	1.92 µM (inactive)	2.45 µM (inactive)	4.53 µM (inactive)	4.09 µM (inactive)	11.2 µM (inactive)	1.23 µM (inactive)
CCOC1C=CCCO1 (configuration not stated)	> 100 µM (inactive)	> 100 µM (inactive)	> 100 µM (inactive)	> 100 µM (inactive)	> 100 µM (inactive)	> 100 µM (inactive)	> 100 µM (inactive)	> 100 µM (inactive)	> 100 µM (inactive)	> 100 µM (inactive)	> 100 µM (inactive)	> 100 µM (inactive)	> 100 µM (inactive)	> 100 µM (inactive)	> 100 µM (inactive)	> 100 µM (inactive)	> 100 µM (inactive)	> 100 µM (inactive)	2.99 µM (inactive)	> 100 µM (inactive)
CC1=NN(c2cccc(Cl)c2)C2(C1)SCC(=O)N2c1nc2ccccc2s1 (configuration not stated)	21.8 µM (inactive)	31.2 µM (inactive)	18.1 µM (inactive)	22.2 µM (inactive)	32.8 µM (inactive)	26.7 µM (inactive)	19.1 µM (inactive)	25 µM (inactive)	33 µM (inactive)	16.1 µM (inactive)	34.3 µM (inactive)	11.6 µM (inactive)	32.1 µM (inactive)	34 µM (inactive)	23.3 µM (inactive)	16.3 µM (inactive)	21.6 µM (inactive)	22.4 µM (inactive)	21.1 µM (inactive)	18.2 µM (inactive)
CN(C)CCn1c(=O)c2ccc3c4c(nn3CCN(C)C)c3cc([N+](=O)[O-])ccc3n(c1=O)c24	< 0.0124 µM (active)	0.0264 µM (active)	0.0548 µM (active)	0.09 µM (active)	0.8 µM (active)	0.222 µM (active)	0.0929 µM (active)	0.0675 µM (active)	0.0724 µM (active)	< 0.01 µM (active)	0.328 µM (active)	0.518 µM (active)	0.0859 µM (active)	0.0189 µM (active)	0.0641 µM (active)	0.0194 µM (active)	0.0783 µM (active)	0.617 µM (active)	0.0661 µM (active)	0.0394 µM (active)
COc1ccc(/C=C2/C(=O)N(C(=O)c3ccccc3O)N=C2C)cc1OC	1.26 µM (inactive)	0.33 µM (active)	26.7 µM (inactive)	0.687 µM (active)	0.326 µM (active)	0.927 µM (active)	> 100 µM (inactive)	0.355 µM (active)	0.489 µM (active)	21.2 µM (inactive)	0.849 µM (active)	0.637 µM (active)	0.614 µM (active)	2.44 µM (inactive)	2.37 µM (inactive)	1.72 µM (inactive)	1.21 µM (inactive)	1.42 µM (inactive)	0.202 µM (active)	–
CC(NC(=O)C(Cc1ccc(OC(=O)c2ccccc2)cc1)NC(=O)OC(C)(C)C)C(=O)NCC(=O)NC(Cc1ccccc1)C(=O)NN (configuration not stated)	> 100 µM (inactive)	> 100 µM (inactive)	23.8 µM (inactive)	16 µM (inactive)	98.2 µM (inactive)	35.1 µM (inactive)	37.9 µM (inactive)	39 µM (inactive)	37.1 µM (inactive)	17.9 µM (inactive)	64.9 µM (inactive)	> 100 µM (inactive)	> 100 µM (inactive)	96.8 µM (inactive)	24.2 µM (inactive)	15.8 µM (inactive)	> 100 µM (inactive)	–	> 100 µM (inactive)	20 µM (inactive)
